Reference: patent US20160362416A1, “ANTIVIRAL COMPOUNDS” (Gilead Sciences, Inc., priority 2012, published 2016)

How the values were obtained:
[1] = tested on: NS5A chimeric genotype 1b Con1 replicon with genotype 4a ED43 strain NS5A gene; assay: HCV genotype 4a NS5A chimeric replicon assay; assay type: cell-based; conditions: Hepatitis C virus, 72 h, read-out: 4a (s) (nM)
Experimental: Evaluation of cell-based anti-HCV activity: Antiviral potency (EC50) was determined using a Renilla luciferase (RLuc)-based HCV replicon reporter assay. To perform the assay for genotype 1 and 2a JFH-1, stable HCV 1a RLuc replicon cells (harboring a dicistronic genotype 1a H77 replicon that encodes a RLuc reporter), stable HCV lb RLuc replicon cells (harboring a dicistronic genotype 1b Conl replicon that encodes a RLuc reporter), or stable HCV 2a JFH-1 Rluc replicon cells (harboring a dicistronic genotype 2a JFH-1 replicon that encodes a RLuc reporter; with L31 present in NS5A) were dispensed into 384-well plates for EC50 assays. To perform the assay for genotype 2a (with M31 present in NS5A) or 2b, NS5A chimeric genotype 2a JFH-1 replicons that encodes a RLuc-Neo reporter and either genotype 2a J6 strain NS5A gene or genotype 2b MD2b-1 strain NS5A gene (both with M31 present) respectively, were either transiently transfected (t) into Huh-Lunet cells or were established as stably replicating replicon cells (s) is provided. Either cells were dispensed into 384-well plates for EC50 assays. To perform the assay for genotype 3 and 4, NS5A chimeric genotype 1b Conl replicons that encodes a Pi-RLuc reporter and either genotype 3a S52 strain NS5A gene or genotype 4a ED43 strain NS5A gene respectively, […], which were subsequently dispensed into 384-well plates. Compounds were dissolved in DMSO at a concentration of 10 mM and diluted in DMSO either manually or using an automated pipeting instrument. Serially 3-fold diluted compounds were either manually mixed with cell culture media and added to the seeded cells or directly added to the cells using an automated instrument. DMSO was used as a negative (solvent; no inhibition) control, and the protease inhibitor ITMN-191 was included at a concentration >100×EC50 as a positive control. 72 hours later, cells were lysed and Renilla luciferase activity quantified as recommended by the manufacturer (Promega-Madison, Wis.). Non-linear regression was performed to calculate EC50 values.

[2] = tested on: stable HCV 1a RLuc replicon cells (genotype 1a H77 replicon); assay: HCV genotype 1a RLuc replicon reporter assay; assay type: cell-based; conditions: Hepatitis C virus; stable genotype 1a H77 RLuc replicon cells, 72 hours
Experimental: (§1) Evaluation of cell-based anti-HCV activity: Antiviral potency (EC50) was determined using a Renilla luciferase (RLuc)-based HCV replicon reporter assay. To perform the assay for genotype 1 and 2a JFH-1, stable HCV 1a RLuc replicon cells (harboring a dicistronic genotype 1a H77 replicon that encodes a RLuc reporter), stable HCV lb RLuc replicon cells (harboring a dicistronic genotype 1b Conl replicon that encodes a RLuc reporter), or stable HCV 2a JFH-1 Rluc replicon cells (harboring a dicistronic genotype 2a JFH-1 replicon that encodes a RLuc reporter; with L31 present in NS5A) were dispensed into 384-well plates for EC50 assays. To perform the assay for genotype 2a (with M31 present in NS5A) or 2b, NS5A chimeric genotype 2a JFH-1 replicons that encodes a RLuc-Neo reporter and either genotype 2a J6 strain NS5A gene or genotype 2b MD2b-1 strain NS5A gene (both with M31 present) respectively, were either transiently transfected (t) into Huh-Lunet cells or were established as stably replicating replicon cells (s) is provided. Either cells were dispensed into 384-well plates for EC50 assays. To perform the assay for genotype 3 and 4, NS5A chimeric genotype 1b Conl replicons that encodes a Pi-RLuc reporter and either genotype 3a S52 strain NS5A gene or genotype 4a ED43 strain NS5A gene respectively, were transiently transfected (t) into Huh-Lunet cells, which were subsequently dispensed into 384-well plates. Compounds were dissolved in DMSO at a concentration of 10 mM and diluted in DMSO either manually or using an automated pipeting instrument. Serially 3-fold diluted compounds were either manually mixed with cell culture media and added to the seeded cells or directly added to the cells using an automated instrument. DMSO was used as a negative (solvent; no inhibition) control, and the protease inhibitor ITMN-191 was included at a concentration >100×EC50 as a positive control. 72 hours later, cells were lysed and Renilla luciferase activity quantified as recommended by the manufacturer (Promega-Madison, Wis.). Non-linear regression was performed to calculate EC50 values.

[3] = tested on: NS5A chimeric genotype 2a JFH-1 replicon with genotype 2a J6 strain NS5A gene (M31); assay: HCV genotype 2a J6 NS5A chimeric replicon assay, transient (t); assay type: cell-based; conditions: Hepatitis C virus, 72 h, read-out: 2a J6 (t) (nM)
Experimental: as §1

[4] = tested on: stable HCV 2a JFH-1 Rluc replicon cells (L31 present in NS5A); assay: HCV genotype 2a JFH-1 RLuc replicon reporter assay; assay type: cell-based; conditions: Hepatitis C virus, 72 h, read-out: 2a JFH (nM)
Experimental: as §1

[5] = tested on: Y93H in genotype 3a NS5A replicon; assay: Resistance mutant replicon assay, genotype 3a NS5A Y93H; assay type: cell-based, HCV; conditions: Hepatitis C virus, read-out: 3a Y93H (nM)
Experimental: as §1
(§2) To determine the antiviral potency (EC50) against resistance mutants, resistance mutations, including M28T, Q30R, Q30H, Q30E, L31M, Y93C, Y93H, and Y93N in genotype 1a NS5A, Y93H and L31V/Y93H in genotype 1b NS5A, and Y93H for in genotype 3a NS5A, were introduced individually into either 1a Pi-Rluc or 1b Pi-Rluc replicons by site directed mutagenesis. Replicon RNA of each resistant mutant was transiently transfected into Huh-7-derived cured-51 cells and antiviral potency was determined on these transfected cells as described above.

[6] = tested on: Y93N in genotype 1a NS5A replicon; assay: Resistance mutant replicon assay, genotype 1a NS5A Y93N; assay type: cell-based, HCV; conditions: Hepatitis C virus, read-out: 1a Y93N (nM)
Experimental: as §1, §2

[7] = tested on: Y93H in genotype 1a NS5A replicon; assay: Resistance mutant replicon assay, genotype 1a NS5A Y93H; assay type: cell-based, HCV; conditions: Hepatitis C virus, read-out: 1a Y93H (nM)
Experimental: as §1, §2

[8] = tested on: stable HCV 1b RLuc replicon cells (genotype 1b Con1 replicon); assay: HCV genotype 1b RLuc replicon reporter assay; assay type: cell-based; conditions: Hepatitis C virus; stable genotype 1b Con1 RLuc replicon cells, 72 hours
Experimental: as §1

[9] = tested on: NS5A chimeric genotype 1b Con1 replicon with genotype 3a S52 strain NS5A gene; assay: HCV genotype 3a NS5A chimeric replicon assay; assay type: cell-based; conditions: Hepatitis C virus, 72 h, read-out: 3a (nM)
Experimental: as §1

[10] = tested on: NS5A chimeric genotype 2a JFH-1 replicon with genotype 2b MD2b-1 strain NS5A gene (M31); assay: HCV genotype 2b NS5A chimeric replicon assay, stable (s); assay type: cell-based; conditions: Hepatitis C virus, 72 h, read-out: 2b (s) (nM)
Experimental: as §1

Compound | EC50 [1] [nM] | EC50 [2] [nM] | EC50 [3] [nM] | EC50 [4] [nM] | EC50 [5] [nM] | EC50 [6] [nM] | EC50 [7] [nM] | EC50 [8] [nM] | EC50 [9] [nM] | EC50 [10] [nM]
COC(=O)N[C@H](C(=O)N1[C@@H](C)CC[C@H]1c1ncc(-c2ccc3c(c2)COc2cc4c(ccc5nc([C@@H]6C[C@@H]7CCC[C@@H]7N6C(=O)[C@@H](NC(=O)OC)C6C[C@@H](C)O[C@H](C)C6)[nH]c54)cc2-3)[nH]1)C(C)C (stereo partly drawn) [Example AX, methyl {(2S)-1-[(2S,5S)-2-(5-{2-[(2S,3aS,6aS)-1-{(2S)-2-[(2R,6R)-2,6-dimethyltetrahydro-2H-pyran-4-yl]-2-[(methoxycarbonyl)amino]acetyl}octahydrocyclopenta[b]pyrrol-2-yl]-1,11-dihydroisochromeno[4′,3′:6,7]naphtho[1,2-d]imidazol-9-yl}-1H-imidazol-2-yl)-5-methylpyrrolidin-1-yl]-3-methyl-1-oxobutan-2-yl}carbamate] | 0.01 | 0.017 | 0.046 | 0.012 | 4.97 | 0.885 | 0.48 | 0.022 | 0.015 | 0.027
COC[C@H]1C[C@@H](c2nc3ccc4cc5c(cc4c3[nH]2)OCc2cc(-c3cnc([C@@H]4CC[C@H](C)N4C(=O)[C@@H](NC(=O)OC)C4C[C@@H](C)O[C@H](C)C4)[nH]3)ccc2-5)N(C(=O)[C@@H](NC(=O)OC)C2C[C@@H](C)O[C@H](C)C2)C1 (stereo partly drawn) [Example BD, methyl {(1S)-1-[(2R,6R)-2,6-dimethyltetrahydro-2H-pyran-4-yl]-2-[(2S,5S)-2-(5-{2-[(2S,4S)-1-{(2S)-2-[(2R,6R)-2,6-dimethyltetrahydro-2H-pyran-4-yl]-2-[(methoxycarbonyl)amino]acetyl}-4-methoxymethylpyrrolidin-2-yl]-1,11-dihydroisochromeno[4′,3′:6,7]naphtho[1,2-d]imidazol-9-yl}-1H-imidazol-2-yl)-5-methylpyrrolidin-1-yl]-2-oxoethyl}carbamate] | 0.029 | 0.06 | – | 0.017 | 0.814 | 0.104 | 0.088 | 0.096 | 0.072 | 0.026
CC[C@H](C)[C@H](NC(=O)OC)C(=O)N1[C@@H](C)CC[C@H]1c1ncc(-c2ccc3c(c2)COc2cc4c(cc2-3)CCc2nc([C@@H]3CC[C@H](C)N3C(=O)[C@@H](NC(=O)OC)C3C[C@@H](C)O[C@H](C)C3)[nH]c2-4)[nH]1 (stereo partly drawn) [Example BE, methyl{(2S,3S)-1-[(2S,5S)-2-(5-{2-[(2S,5S)-1-{(2S)-2-[(2R,6R)-2,6-dimethyltetrahydro-2H-pyran-4-yl]-2-[(methoxycarbonyl)amino]acetyl}-5-methylpyrrolidin-2-yl]-1,4,5,11-tetrahydroisochromeno[4′,3′:6,7]naphtho[1,2-d]imidazol-9-yl}-1H-imidazol-2-yl)-5-methylpyrrolidin-1-yl]-3-methyl-1-oxopentan-2-yl}carbamate] | 0.011 | 0.017 | – | 0.011 | 2.25 | 1.42 | 0.755 | 0.019 | 0.022 | 0.029
COC(=O)N[C@H](C(=O)N1[C@@H](C)CC[C@H]1c1ncc(-c2ccc3c(c2)COc2cc4c(cc2-3)CCc2nc([C@@H]3CC[C@H](C)N3C(=O)[C@@H](NC(=O)OC)C3C[C@@H](C)O[C@H](C)C3)[nH]c2-4)[nH]1)C1C[C@@H](C)O[C@H](C)C1 (stereo partly drawn) [Example BF, methyl {(1S)-1-[(2R,6R)-2,6-dimethyltetrahydro-2H-pyran-4-yl]-2-[(2S,5S)-2-(9-{2-[(2S,5S)-1-{(2S)-2-[(2R,6R)-2,6-dimethyltetrahydro-2H-pyran-4-yl]-2-[(methoxycarbonyl)amino]acetyl}-5-methylpyrrolidin-2-yl]-1H-imidazol-5-yl}-1,4,5,11-tetrahydroisochromeno[4′,3′:6,7]naphtho[1,2-d]imidazol-2-yl)-5-methylpyrrolidin-1-yl]-2-oxoethyl}carbamate] | 0.025 | 0.048 | 0.035 | 0.021 | 0.365 | 0.125 | 0.035 | 0.049 | 0.065 | 0.042
